Data reported in patent US10947242B2, “[1,2,4]triazolo[1,5and#8208;A]pyrimidine compounds as PDE2 inhibitors” (Janssen Pharmaceutica NV, priority 2016, dated 2021).
Read-outs that look alike come from different tables or passages of the source.

Tests used:
[1] = molecular target: T1, Human recombinant PDE2A (hPDE2A) (Homo sapiens, UniProt O00408); assay: In vitro assay PDE2A (SPA, 3H-cGMP hydrolysis); assay type: biochemical; settings: for Emax: read-out: hPDE2A Emax
T1 construct: His tag (inferred from metal chelate purification); made in house; host or cells: Sf9 insect cells (baculovirus)

[2] = molecular target: T2, Human recombinant PDE3A (hPDE3A) (Homo sapiens, UniProt Q14432); assay: In vitro assay PDE3A (SPA, 3H-cAMP hydrolysis); assay type: biochemical; settings: for IC50: hPDE3B pIC50; for Emax: read-out: hPDE3B Emax, read-out: Emax;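 as to Emax: the method names PDE3A and the table heading PDE3B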
T2 construct: purchased Scottish Biomedical; host or cells: Sf9 insect cells
How it was run: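 Radiometric SPA measuring [3H]-cAMP hydrolysis (0.4 μM cAMP, 2.4 μCi/ml) over 60 min at room temperature, in Tris pH 7.8 buffer with MgCl2 and EGTA, 1% DMSO. Enzyme: recombinant human brain PDE3A expressed in Sf9 cells, used as partially purified lysate. Counts compared with enzyme-free blanks and vehicle controls.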

[3] = molecular target: T3, Human recombinant PDE10A (hPDE10A) (Homo sapiens, UniProt Q9Y233); assay: In vitro assay PDE10A, human clone (SPA, 3H-cAMP hydrolysis); assay type: biochemical
T3 construct: His tag (inferred from metal chelate purification); made in house; host or cells: Sf9 insect cells (baculovirus)
How it was run: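 Hydrolysis of 3H-cAMP (60 nM cAMP, 0.008 μCi tracer) proceeded for 60 min at room temperature, with the product detected by SPA bead scintillation counting. The enzyme was hPDE10A from baculovirus-infected Sf9 cells in Tris pH 7.8 buffer with MgCl2 and EGTA, and compounds were at 1% DMSO final. Blanks lacked enzyme.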

[4] = molecular target: T4, PDE2A (Rattus norvegicus, UniProt Q01062); assay: PDE2 occupancy by test compounds, ex-vivo autoradiography with [3H]B-17a; assay type: in vivo, Male Wistar rats; settings: 10 mg/kg, percentage receptor occupancy, ex-vivo autoradiography, striatum
T4 construct: Twenty μm-thick striatal sections were cut; from tissue; host or cells: rat brain, striatal sections
T4 sequence (Q01062 1-928): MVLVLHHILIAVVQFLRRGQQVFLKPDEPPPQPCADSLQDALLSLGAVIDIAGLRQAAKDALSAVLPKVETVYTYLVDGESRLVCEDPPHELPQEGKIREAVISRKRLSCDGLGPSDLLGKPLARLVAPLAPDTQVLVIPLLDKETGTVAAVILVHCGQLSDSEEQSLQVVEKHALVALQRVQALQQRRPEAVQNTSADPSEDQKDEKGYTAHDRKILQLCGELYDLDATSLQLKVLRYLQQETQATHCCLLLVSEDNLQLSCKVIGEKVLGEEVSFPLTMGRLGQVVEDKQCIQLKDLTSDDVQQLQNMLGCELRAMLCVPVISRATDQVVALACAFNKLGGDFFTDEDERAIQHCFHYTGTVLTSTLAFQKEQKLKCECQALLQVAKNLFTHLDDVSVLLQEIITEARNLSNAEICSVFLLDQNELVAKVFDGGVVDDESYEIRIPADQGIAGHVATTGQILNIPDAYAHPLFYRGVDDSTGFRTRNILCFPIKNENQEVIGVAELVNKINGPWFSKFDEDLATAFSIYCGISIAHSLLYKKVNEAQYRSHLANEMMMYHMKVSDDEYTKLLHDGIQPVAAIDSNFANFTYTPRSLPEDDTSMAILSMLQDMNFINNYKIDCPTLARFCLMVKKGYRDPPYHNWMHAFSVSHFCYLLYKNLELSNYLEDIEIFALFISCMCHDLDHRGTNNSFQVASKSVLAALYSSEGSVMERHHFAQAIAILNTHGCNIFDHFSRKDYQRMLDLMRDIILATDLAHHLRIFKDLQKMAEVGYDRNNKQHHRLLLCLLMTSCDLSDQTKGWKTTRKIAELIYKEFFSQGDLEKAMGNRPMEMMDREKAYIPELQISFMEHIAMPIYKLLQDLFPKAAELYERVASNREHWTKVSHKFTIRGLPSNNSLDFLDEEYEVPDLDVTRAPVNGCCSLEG

[5] = human recombinant PDE2A, 10 μM cGMP substrate, read-out: hPDE2A pIC50 (converted)
[6] = read-out: hPDE2A pIC50 (converted)
[7] = human clone (h), default, read-out: hPDE10A2 Emax
[8] = human clone (h), default, read-out: hPDE10A2 pIC50 (converted)
[9] = hPDE2A pIC50, human recombinant PDE2A, 10 μM cGMP substrate
[10] = human clone by default (no (r) mark), read-out: hPDE10A2 or rPDE10A2 Emax
[11] = human clone by default (no (r) mark), read-out: hPDE10A2 or rPDE10A2 pIC50 (converted)

T2 sequence (Q14432 whole entry): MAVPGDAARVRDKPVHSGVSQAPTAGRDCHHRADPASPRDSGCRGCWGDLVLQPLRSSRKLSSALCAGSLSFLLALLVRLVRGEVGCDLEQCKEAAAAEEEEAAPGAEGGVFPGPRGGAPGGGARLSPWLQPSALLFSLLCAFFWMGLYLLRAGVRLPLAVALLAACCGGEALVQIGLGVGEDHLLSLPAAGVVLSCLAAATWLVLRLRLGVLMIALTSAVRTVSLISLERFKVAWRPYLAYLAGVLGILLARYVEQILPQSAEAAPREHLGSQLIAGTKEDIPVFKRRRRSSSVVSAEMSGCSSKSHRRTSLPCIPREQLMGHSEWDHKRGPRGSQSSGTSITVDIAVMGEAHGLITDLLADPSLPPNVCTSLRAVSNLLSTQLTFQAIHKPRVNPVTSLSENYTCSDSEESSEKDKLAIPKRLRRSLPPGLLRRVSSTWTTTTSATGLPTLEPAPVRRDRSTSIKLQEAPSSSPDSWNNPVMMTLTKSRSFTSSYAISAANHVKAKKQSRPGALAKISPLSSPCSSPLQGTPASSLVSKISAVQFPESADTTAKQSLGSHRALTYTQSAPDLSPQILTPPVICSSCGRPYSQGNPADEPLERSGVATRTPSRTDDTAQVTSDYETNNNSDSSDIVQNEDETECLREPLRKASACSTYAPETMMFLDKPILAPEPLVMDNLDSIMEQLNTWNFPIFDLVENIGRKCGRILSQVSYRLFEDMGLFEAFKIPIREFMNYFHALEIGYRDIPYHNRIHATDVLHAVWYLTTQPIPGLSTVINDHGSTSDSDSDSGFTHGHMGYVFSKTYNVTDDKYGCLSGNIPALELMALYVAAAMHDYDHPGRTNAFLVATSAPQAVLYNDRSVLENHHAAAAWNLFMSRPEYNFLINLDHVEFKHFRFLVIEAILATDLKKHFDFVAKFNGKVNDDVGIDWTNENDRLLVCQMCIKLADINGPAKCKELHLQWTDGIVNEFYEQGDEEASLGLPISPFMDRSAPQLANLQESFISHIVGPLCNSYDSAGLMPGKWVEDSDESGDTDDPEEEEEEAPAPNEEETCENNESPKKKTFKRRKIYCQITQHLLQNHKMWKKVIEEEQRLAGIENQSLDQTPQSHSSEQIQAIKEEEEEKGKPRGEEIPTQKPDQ
T3 sequence (Q9Y233 267-1055): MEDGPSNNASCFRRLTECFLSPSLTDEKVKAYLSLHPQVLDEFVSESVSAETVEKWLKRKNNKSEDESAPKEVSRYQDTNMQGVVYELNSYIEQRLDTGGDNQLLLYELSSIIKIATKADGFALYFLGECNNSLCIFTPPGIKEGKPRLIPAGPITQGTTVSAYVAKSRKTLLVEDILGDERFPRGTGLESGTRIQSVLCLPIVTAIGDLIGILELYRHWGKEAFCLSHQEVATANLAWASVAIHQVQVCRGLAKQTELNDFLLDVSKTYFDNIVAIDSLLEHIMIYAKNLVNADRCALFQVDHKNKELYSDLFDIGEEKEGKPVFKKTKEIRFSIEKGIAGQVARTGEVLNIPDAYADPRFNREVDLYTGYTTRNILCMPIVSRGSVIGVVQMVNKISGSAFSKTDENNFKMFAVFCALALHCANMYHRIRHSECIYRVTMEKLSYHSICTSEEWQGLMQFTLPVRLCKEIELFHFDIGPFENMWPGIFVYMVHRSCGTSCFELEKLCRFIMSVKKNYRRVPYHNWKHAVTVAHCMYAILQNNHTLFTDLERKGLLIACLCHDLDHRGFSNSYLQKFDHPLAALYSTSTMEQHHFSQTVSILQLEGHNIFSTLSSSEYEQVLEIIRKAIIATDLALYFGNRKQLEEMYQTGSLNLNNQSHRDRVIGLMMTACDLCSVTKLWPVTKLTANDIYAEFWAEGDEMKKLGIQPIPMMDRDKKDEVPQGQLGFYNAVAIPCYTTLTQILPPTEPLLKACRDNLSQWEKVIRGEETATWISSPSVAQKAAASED
T1 sequence (O00408 whole entry): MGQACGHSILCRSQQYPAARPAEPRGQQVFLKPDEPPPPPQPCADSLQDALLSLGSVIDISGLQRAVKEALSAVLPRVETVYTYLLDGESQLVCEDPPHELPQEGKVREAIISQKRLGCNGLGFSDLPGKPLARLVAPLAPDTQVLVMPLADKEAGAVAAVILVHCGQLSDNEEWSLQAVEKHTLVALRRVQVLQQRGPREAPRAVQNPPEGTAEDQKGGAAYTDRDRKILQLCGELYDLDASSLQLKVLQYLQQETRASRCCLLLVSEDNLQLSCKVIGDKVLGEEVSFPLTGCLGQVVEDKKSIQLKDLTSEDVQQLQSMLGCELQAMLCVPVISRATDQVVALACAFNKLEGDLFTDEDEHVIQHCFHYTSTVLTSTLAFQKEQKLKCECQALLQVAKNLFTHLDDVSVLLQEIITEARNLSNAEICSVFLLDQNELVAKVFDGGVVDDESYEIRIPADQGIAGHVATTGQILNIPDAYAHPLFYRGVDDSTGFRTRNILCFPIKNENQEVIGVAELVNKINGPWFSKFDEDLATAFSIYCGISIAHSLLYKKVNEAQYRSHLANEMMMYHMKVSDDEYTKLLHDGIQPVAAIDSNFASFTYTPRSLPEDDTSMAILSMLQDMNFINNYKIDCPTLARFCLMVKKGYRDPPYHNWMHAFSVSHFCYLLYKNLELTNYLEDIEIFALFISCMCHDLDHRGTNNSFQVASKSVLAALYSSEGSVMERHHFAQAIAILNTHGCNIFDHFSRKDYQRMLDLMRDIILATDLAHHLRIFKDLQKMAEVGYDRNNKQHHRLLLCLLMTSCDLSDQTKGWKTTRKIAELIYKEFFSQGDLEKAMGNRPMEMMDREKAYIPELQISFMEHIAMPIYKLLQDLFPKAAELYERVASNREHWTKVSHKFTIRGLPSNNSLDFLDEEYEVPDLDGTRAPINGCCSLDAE

Compound | IC50 [1, 5] [µM] | Emax ([1]; human recombinant PDE2A) [%] | Emax [1] [%] | IC50 [1, 6] [µM] | IC50 ([2]; read-out: pIC50 (converted)) [µM] | Emax [2] [%] | Emax [3, 7] [%] | IC50 [3, 8] [µM] | receptor occupancy at 10 mg/kg ([4]; sc, route SC (subcutaneous)) [%] | IC50 ([1]; hPDE2A pIC50) [µM] | IC50 [1, 9] [µM] | receptor occupancy at 10 mg/kg ([4]; po, route PO (oral)) [%] | Emax [3, 10] [%] | IC50 [3, 11] [µM] | receptor occupancy at 10 mg/kg ([4]; route PO (oral)) [%] | IC50 [2] [µM] | IC50 ([3]; hPDE10A2 or rPDE10A2 pIC50, human clone by default (no (r) mark)) [µM]
C[C@@H]1CCN(C(=O)c2cc(Cl)nc(Cl)c2F)C[C@H]1c1cc(C(F)F)nc2ncnn12 [Compound 71] | 0.00186 | 98 | 98 | 0.00186 | > 1 | 32 | 94 | 0.339 | 49 |  |  |  |  |  |  |  | 
Cc1cc(C(=O)N2CC[C@@H](C)[C@H](c3cc(C)nc4ncnn34)C2)cc(C)n1 [Compound 1a] |  |  | 100 |  | 2.09 | 65 | 98 | 0.0129 |  | 0.000794 | 0.000794 | 37 |  |  |  |  | 
Cc1cc([C@@H]2CN(C(=O)c3cc(C4CC4)ncc3C(F)(F)F)CC[C@H]2C)n2ncnc2n1 [Compound 283] |  |  | 100 | 0.00851 | > 10 | 38 |  |  |  |  |  | -12 | 98 | 0.178 |  |  | 
COc1c(C)cc(C(=O)N2[C@H]3CC[C@H](c4cc(C(F)F)nc5ncnn45)[C@@H]2CC3)cc1C [Compound 292] |  |  | 100 | 0.00251 | 4.68 | 73 |  |  |  |  |  |  | 94 | 0.724 | 23 |  | 
COc1ncc(C(=O)N2CC[C@@H](C)[C@H](c3cc(C(F)F)nc4ncnn34)C2)cc1C1CC1 [Compound 73] | 0.00195 | 101 | 101 | 0.00195 | 2.63 | 83 | 98 | 0.219 |  |  |  | 0 |  |  |  |  | 
Cc1cc(C(=O)N2CC[C@@H](C)[C@H](c3cc(C(F)F)nc4ncnn34)C2)cc(C)c1Cl [Compound 76] |  |  | 99 |  | 1.23 | 91 | 101 | 0.0316 |  | 0.000229 | 0.000229 | 17 |  |  |  |  | 
Cc1cc([C@@H]2CN(C(=O)c3cc(Cl)ncc3C)CC[C@H]2C)n2ncnc2n1 [Compound 18] | 0.00468 | 100 | 100 | 0.00468 | 6.46 | 65 | 97 | 0.195 |  |  |  | 4 |  |  |  |  | 
Cn1cc(C(=O)N2[C@H]3CC[C@H](c4cc(C(F)F)nc5ncnn45)[C@@H]2CC3)c2ccccc21 [Compound 297] |  |  | 97 | 0.00234 | 5.89 | 62 |  |  |  |  |  |  | 96 | 0.589 | -2 |  | 
C[C@@H]1CCN(C(=O)c2cc(Cl)cnc2C(F)(F)F)C[C@H]1c1cc(C(F)F)nc2ncnn12 [Compound 39] | 0.00832 | 98 | 98 | 0.00832 | > 10 | 16 | 75 | 3.09 |  |  |  | -8 |  |  |  |  | 
C[C@@H]1CCN(C(=O)c2ccc3ncsc3c2)C[C@@]1(F)c1cc(C(F)F)nc2ncnn12 [Compound 33] | 0.0148 | 99 | 99 | 0.0148 | > 10 | 25 | 67 | 6.17 |  |  |  | -7 |  |  |  |  | 
COc1cc(C(=O)N2CC[C@@H](C)[C@H](c3cc(C(F)F)nc4ncnn34)C2)cc(OC)n1 [Compound 284] |  |  | 101 | 0.0017 | 1.26 | 89 |  |  |  |  |  | 16 | 98 | 0.055 |  |  | 
COc1ncc(C(=O)N2CC[C@@H](C)[C@H](c3cc(C(F)F)nc4ncnn34)C2)cc1Cl [Compound 134] | 0.00316 | 101 | 101 | 0.00316 | 2.24 | 84 | 100 | 0.158 |  |  |  | 21 |  |  |  |  | 
COc1ccc(C(=O)N2[C@H]3CC[C@H](c4cc(C(F)F)nc5ncnn45)[C@@H]2CC3)cc1OC [Compound 364] |  |  | 101 | 0.00389 | 3.16 | 75 |  |  |  |  |  |  | 85 | 1.82 | -5 |  | 
Cc1cc(C(=O)N2[C@H]3CC[C@H](c4cc(C(F)F)nc5ncnn45)[C@@H]2CC3)cc(OC(F)F)n1 [Compound 293] |  |  | 100 | 0.0112 | 3.47 | 80 |  |  |  |  |  |  | 90 | 1.02 | 6 |  | 
C[C@@H]1CCN(C(=O)c2ccn3cccc3c2)C[C@H]1c1cc(C(F)F)nc2ncnn12 [Compound 90] | 0.000355 | 101 | 101 | 0.000355 | 0.214 | 98 | 102 | 0.0195 | 73 |  |  |  |  |  |  |  | 
Cc1cc2ccc(C(=O)N3[C@H]4CC[C@H](c5cc(C(F)F)nc6ncnn56)[C@@H]3CC4)cn2c1 [Compound 307] |  |  | 99 |  |  | 88 |  |  |  | 0.00912 |  |  | 97 |  | 8 | 1.48 | 0.603
Cc1cc(C(=O)N2CC[C@@H](C)[C@H](c3cc(C(F)F)nc4ncnn34)C2)cc(C)c1F [Compound 115] |  |  | 100 |  | 1.95 | 87 | 99 | 0.0776 |  | 0.00105 | 0.00105 | 23 |  |  |  |  | 
Cc1ccc(C(=O)N2[C@H]3CC[C@H](c4cc(C(F)F)nc5ncnn45)[C@@H]2CC3)cc1Cl [Compound 369] |  |  | 100 | 0.0049 | 3.72 | 72 |  |  |  |  |  |  | 93 | 0.724 | 9 |  | 
Cc1cc(C(=O)N2CC[C@@H](C)[C@H](c3cc(C(F)F)nc4ncnn34)C2)c(F)c(OC2CC2)n1 [Compound 392] |  |  | 99 | 0.00112 | 0.447 | 97 |  |  |  |  |  | 46 | 93 | 0.263 |  |  | 
C[C@@H]1CCN(C(=O)c2ccc(C3CC3)c(F)c2)C[C@H]1c1cc(C(F)F)nc2ncnn12 [Compound 103] | 0.000708 | 99 | 99 | 0.000708 | 0.0871 | 100 | 100 | 0.0182 | 42 |  |  |  |  |  |  |  | 
Cc1cc([C@@H]2CN(C(=O)c3ccc4nccn4c3)CC[C@H]2C)n2ncnc2n1 [Compound 99] | 0.000603 | 100 | 100 | 0.000603 | 2.09 | 87 | 100 | 0.00955 |  |  |  | 1 |  |  |  |  | 
